Results as given in patent publication US5002948A, “3-[4-[4-substituted-1-piperazinyl]-1-butyl]-1H-2,3-dihydroindoles” (H. Lundbeck A/S, priority 1988, dated 1991).

Target: T1, 5-HT1A (Rattus norvegicus, UniProt P19327)
T1 sequence (P19327 1-422): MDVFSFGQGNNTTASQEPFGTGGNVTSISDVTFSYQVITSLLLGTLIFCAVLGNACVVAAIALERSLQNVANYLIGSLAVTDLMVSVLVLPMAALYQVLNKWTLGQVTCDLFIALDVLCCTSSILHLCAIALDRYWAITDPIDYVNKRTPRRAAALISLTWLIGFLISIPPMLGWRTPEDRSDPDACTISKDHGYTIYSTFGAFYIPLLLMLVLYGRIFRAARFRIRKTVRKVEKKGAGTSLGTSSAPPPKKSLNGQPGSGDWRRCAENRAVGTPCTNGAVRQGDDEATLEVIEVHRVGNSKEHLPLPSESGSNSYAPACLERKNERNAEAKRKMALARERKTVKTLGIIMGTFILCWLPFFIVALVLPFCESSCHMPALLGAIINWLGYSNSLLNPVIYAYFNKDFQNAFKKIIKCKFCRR
Assay: Antagonism of the discriminative stimulus properties induced by 8-OHDPAT in rats
Format: in vivo, Male Wistar rats
Design: from tissue; host or cells: whole living animal, male Wistar rats, s.c. dosing
Settings: rat, sc, s.c. before 8-OHDPAT; rats trained at 0.4 mg/kg i.p.; inhibition of drug responding; read-out: ED50, 8-OH DPAT cue antagonism
Method: ANTAGONISM OF THE DISCRIMINATIVE STIMULUS PROPERTIES INDUCED BY 8-OHDPAT IN RATS.
This test model is used to determine the antagonist effects of a test compound on 5-HT1A receptors in vivo. A related method is described by Tricklebank, M. D., J. Neill, E. J. Kidd and J. R. Fozard, Eur. J. Pharmacol. 133, 47-56, 1987; Arnt. J., Pharmacology & Toxicology 64, 165-172, 1989.
Male Wistar rats are trained to discriminate between 8-OHDPAT (0.4 mg/kg, i.p., 15 min. pretreatment) and physiological saline in operant chambers equipped with two response levers. Between the levers a dipper is placed, where water rewards (0.1 ml) are presented. The rats are water deprived for at least 24 h and work in a fixed ratio (FR) schedule (final FR=32).
Following 8-OHDPAT administration responding is reinforced only on a designated (drug) lever, whereas responding on the opposite lever has no consequences. Following saline administration responding is reinforced on the lever opposite to the drug lever. Drug and saline trials alternate randomly between training days, although the same treatment is given maximally at 3 consecutive days. The level of discrimination occuracy is expressed as the per cent drug responses and is calculated as the number of correct responses×100 divided by the sum of the correct and incorrect responses before the first reward. When stable occuracy (mean correct responding=90 per cent; individual rats at least 75 per cent correct responding) is obtained test sessions are included between training days. Test compound is injected s.c. at appropriate time before 8-OHDPAT and the test begins 15 min after 8-OHDPAT injection. The test trial is terminated when a total of 32 responses are made on either lever or when 20 min have elapsed. No reward is given and the rats have free access to water for 20-30 min after the test. The effects are expressed as per cent inhibition of drug responding. Only results from rats making at least 10 responses on one lever are included in data analysis. Furthermore, only test sessions in which at least half of the rats respond are included.
The per cent inhibition of drug response obtained for each dose of test compound is used to calculate ED50 values by log-probit analysis.

ED50 [µmol/kg]	SMILES
> 9	c1ccc2c(c1)NCC2CCCCN1CCN(c2cccc3c2OCC3)CC1 (stereo not drawn) [Compound 3i, 3-[4-[4-(2,3-dihydro-7-benzofuranyl)-1-piperazinyl]-1-butyl]-1H-2,3-dihydroindole]
4.8	CCOc1ccccc1N1CCN(CCCCC2CNc3ccccc32)CC1 (stereo not drawn) [Compound 3c, 3-[4-[4-(2-ethoxyphenyl)-1-piperazinyl]-1-butyl]-1H-2,3-dihydroindole]
8.8	c1ccc2c(c1)NCC2CCCCN1CCN(c2cccc3c2OCCO3)CC1 (stereo not drawn) [Compound 3j, 3-[4-[4-(1,4-benzodioxan-5-yl)-1-piperazinyl]-1-butyl]-1H-2,3-dihydroindole]
7.2	COc1ccccc1N1CCN(CCCCC2CNc3ccccc32)CC1 (stereo not drawn) [Compound 3a, 3-[4-[4-(2-methoxyphenyl)-1-piperazinyl]-1-butyl]-1H-2,3-dihydroindole]

Same assay, conditions: s.c. before 8-OHDPAT; rats trained at 0.4 mg/kg i.p.; inhibition of drug responding; 0.4 mg/kg

ED50, 8-OH DPAT cue antagonism [µmol/kg]	SMILES
> 3.4	COc1ccccc1N1CCN(CCCCC2CNc3ccccc32)CC1 (single isomer, unassigned; (-)) [Compound 7b, (-)-3-[4-[4-(2-methoxyphenyl)-1-piperazinyl]-1-butyl]-1H-2,3-dihydroindole]
1.0	COc1ccccc1N1CCN(CCCCC2CNc3ccccc32)CC1 (single isomer, unassigned; (+)) [Compound 7a, (+)-3-[4-[4-(2-methoxyphenyl)-1-piperazinyl]-1-butyl]-1H-2,3-dihydroindole]
